# Assay results published in ChEMBL document CHEMBL4138123, “Design, synthesis and biological evaluation of novel pyrazolochalcones as potential modulators of PI3K/Akt/mTOR pathway and inducers of apoptosis in breast cancer cells” (Eur J Med Chem, 2017).
# What was measured:
# Type in all cases: functional
# HT-29 [1] = test: Cytotoxicity against human HT-29 cells assessed as growth inhibition after 48 hrs by sulforhodamine B assay; conditions: HT-29, 48 h
# SF-268 = test: Cytotoxicity against human SF268 cells assessed as growth inhibition after 48 hrs by sulforhodamine B assay; conditions: SF-268, 48 h; for CC50: read-out: LC50 (the source's name)
# LOX IMVI = test: Cytotoxicity against human LOXIMVI cells assessed as growth inhibition after 48 hrs by sulforhodamine B assay
# IGROV-1 = test: Cytotoxicity against human IGROV1 cells assessed as growth inhibition after 48 hrs by sulforhodamine B assay; conditions: IGROV-1, 48 h
# OVCAR-3 = test: Cytotoxicity against human OVCAR3 cells assessed as growth inhibition after 48 hrs by sulforhodamine B assay; conditions: OVCAR-3, 48 h
# Hs-578T [2] = test: Cytotoxicity against human Hs 578T cells assessed as growth inhibition after 48 hrs by sulforhodamine B assay
# SNB-19 [3] = test: Cytotoxicity against human SNB19 cells assessed as cell growth at 0.01 uM after 48 hrs by sulforhodamine B assay relative to control; conditions: SNB-19, 48 h, read-out: Activity
# SF-539 = test: Cytotoxicity against human SF539 cells assessed as cell growth at 0.01 uM after 48 hrs by sulforhodamine B assay relative to control; conditions: SF-539, 48 h, read-out: Activity
# PC-3 [4] = test: Cytotoxicity against human PC3 cells assessed as cell growth at 0.01 uM after 48 hrs by sulforhodamine B assay relative to control; conditions: PC-3, 48 h, read-out: Activity
# DU-145 = test: Cytotoxicity against human DU145 cells assessed as cell growth at 0.01 uM after 48 hrs by sulforhodamine B assay relative to control; conditions: DU-145, 48 h, read-out: Activity
# T47D = test: Cytotoxicity against human T47D cells assessed as cell growth at 0.01 uM after 48 hrs by sulforhodamine B assay relative to control; conditions: read-out: Activity
# NCI-H322M = test: Cytotoxicity against human NCI-H322M cells assessed as cell growth at 0.1 uM after 48 hrs by sulforhodamine B assay relative to control; conditions: read-out: Activity
# NCI-H522 = test: Cytotoxicity against human NCI-H522 cells assessed as cell growth at 0.1 uM after 48 hrs by sulforhodamine B assay relative to control; conditions: NCI-H522, 48 h, read-out: Activity
# OVCAR-5 [5] = test: Cytotoxicity against human OVCAR5 cells assessed as cell growth at 0.1 uM after 48 hrs by sulforhodamine B assay relative to control; conditions: OVCAR-5, 48 h, read-out: Activity
# MCF7 = test: Cytotoxicity against human MCF7 cells assessed as cell growth at 0.1 uM after 48 hrs by sulforhodamine B assay relative to control; conditions: MCF7, 48 h, read-out: Activity
# SR [6] = test: Cytotoxicity against human SR cells assessed as cell growth at 1 uM after 48 hrs by sulforhodamine B assay relative to control; conditions: read-out: Activity
# HCC 2998 [7] = test: Cytotoxicity against human HCC2998 cells assessed as cell growth at 1 uM after 48 hrs by sulforhodamine B assay relative to control; conditions: HCC 2998, 48 h, read-out: Activity
# HT-29 [8] = test: Cytotoxicity against human HT-29 cells assessed as cell growth at 1 uM after 48 hrs by sulforhodamine B assay relative to control; conditions: HT-29, 48 h, read-out: Activity
# SW-620 = test: Cytotoxicity against human SW620 cells assessed as cell growth at 1 uM after 48 hrs by sulforhodamine B assay relative to control; conditions: SW-620, 48 h, read-out: Activity
# SNB-19 [9] = test: Cytotoxicity against human SNB19 cells assessed as cell growth at 1 uM after 48 hrs by sulforhodamine B assay relative to control; conditions: SNB-19, 48 h, read-out: Activity
# M14 = test: Cytotoxicity against human M14 cells assessed as cell growth at 1 uM after 48 hrs by sulforhodamine B assay relative to control; conditions: M14, 48 h, read-out: Activity
# 786-0 = test: Cytotoxicity against human 786-0 cells assessed as cell growth at 1 uM after 48 hrs by sulforhodamine B assay relative to control; conditions: 786-0, 48 h, read-out: Activity
# SN12C = test: Cytotoxicity against human SN12C cells assessed as cell growth at 1 uM after 48 hrs by sulforhodamine B assay relative to control; conditions: read-out: Activity
# Hs-578T [10] = test: Cytotoxicity against human Hs 578T cells assessed as cell growth at 1 uM after 48 hrs by sulforhodamine B assay relative to control; conditions: read-out: Activity
# HOP-62 = test: Cytotoxicity against human HOP62 cells assessed as cell growth at 10 uM after 48 hrs by sulforhodamine B assay relative to control; conditions: HOP-62, 48 h, read-out: Activity
# HT-29 [11] = test: Cytotoxicity against human HT-29 cells assessed as cell growth at 10 uM after 48 hrs by sulforhodamine B assay relative to control; conditions: HT-29, 48 h, read-out: Activity
# U-251 = test: Cytotoxicity against human U251 cells assessed as cell growth at 10 uM after 48 hrs by sulforhodamine B assay relative to control; conditions: U-251, 48 h, read-out: Activity
# NCI/ADR-RES = test: Cytotoxicity against human NCI/ADR-RES cells assessed as cell growth at 10 uM after 48 hrs by sulforhodamine B assay relative to control; conditions: read-out: Activity
# RXF 393 = test: Cytotoxicity against human RXF393 cells assessed as cell growth at 10 uM after 48 hrs by sulforhodamine B assay relative to control; conditions: RXF 393, 48 h, read-out: Activity
# PC-3 [12] = test: Cytotoxicity against human PC3 cells assessed as cell growth at 10 uM after 48 hrs by sulforhodamine B assay relative to control; conditions: PC-3, 48 h, read-out: Activity
# MDA-MB-468 = test: Cytotoxicity against human MDA-MB-468 cells assessed as cell growth at 10 uM after 48 hrs by sulforhodamine B assay relative to control; conditions: MDA-MB-468, 48 h, read-out: Activity
# HL-60(TB) = test: Cytotoxicity against human HL-60(TB) cells assessed as cell growth at 100 uM after 48 hrs by sulforhodamine B assay relative to control; conditions: HL-60, 48 h, read-out: Activity
# SR [13] = test: Cytotoxicity against human SR cells assessed as cell growth at 100 uM after 48 hrs by sulforhodamine B assay relative to control; conditions: read-out: Activity
# HCC 2998 [14] = test: Cytotoxicity against human HCC2998 cells assessed as cell growth at 100 uM after 48 hrs by sulforhodamine B assay relative to control; conditions: HCC 2998, 48 h, read-out: Activity
# HCT-15 = test: Cytotoxicity against human HCT15 cells assessed as cell growth at 100 uM after 48 hrs by sulforhodamine B assay relative to control; conditions: HCT-15, 48 h, read-out: Activity
# SK-MEL-28 = test: Cytotoxicity against human SK-MEL-28 cells assessed as cell growth at 100 uM after 48 hrs by sulforhodamine B assay relative to control; conditions: SK-MEL-28, 48 h, read-out: Activity
# OVCAR-5 [15] = test: Cytotoxicity against human OVCAR5 cells assessed as cell growth at 100 uM after 48 hrs by sulforhodamine B assay relative to control; conditions: OVCAR-5, 48 h, read-out: Activity
smiles,measurement,setting,value
COc1cc(-c2cc(/C=C/C(=O)c3ccc4c(c3)OCO4)[nH]n2)cc(OC)c1OC,LC50,HT-29 [1],9.48 µM
same,TGI,HT-29 [1],4.55 µM
same,TGI,SF-268,14.5 µM
same,CC50,SF-268,> 100 µM
same,LC50,LOX IMVI,7.83 µM
same,TGI,LOX IMVI,3.78 µM
same,LC50,IGROV-1,> 100 µM
same,TGI,IGROV-1,62.1 µM
same,LC50,OVCAR-3,> 100 µM
same,TGI,OVCAR-3,12.3 µM
same,LC50,Hs-578T [2],> 100 µM
same,TGI,Hs-578T [2],78.7 µM
same,growth at 0.01 µM,SNB-19 [3],94%
same,growth at 0.01 µM,SF-539,98%
same,growth at 0.01 µM,PC-3 [4],100%
same,growth at 0.01 µM,DU-145,104%
same,growth at 0.01 µM,T47D,100%
same,growth at 0.1 µM,NCI-H322M,95%
same,growth at 0.1 µM,NCI-H522,92%
same,growth at 0.1 µM,OVCAR-5 [5],91%
same,growth at 0.1 µM,MCF7,94%
same,growth at 1 µM,SR [6],32%
same,growth at 1 µM,HCC 2998 [7],106%
same,growth at 1 µM,HT-29 [8],103%
same,growth at 1 µM,SW-620,88%
same,growth at 1 µM,SNB-19 [9],84%
same,growth at 1 µM,M14,100%
same,growth at 1 µM,786-0,96%
same,growth at 1 µM,SN12C,91%
same,growth at 1 µM,Hs-578T [10],94%
same,growth at 10 µM,HOP-62,-38%
same,growth at 10 µM,HT-29 [11],-54%
same,growth at 10 µM,U-251,-31%
same,growth at 10 µM,NCI/ADR-RES,23%
same,growth at 10 µM,RXF 393,-95%
same,growth at 10 µM,PC-3 [12],6%
same,growth at 10 µM,MDA-MB-468,-88%
same,growth at 100 µM,HL-60(TB),-36%
same,growth at 100 µM,SR [13],2%
same,growth at 100 µM,HCC 2998 [14],-50%
same,growth at 100 µM,HCT-15,-10%
same,growth at 100 µM,SK-MEL-28,-16%
COc1cc(-c2cc(/C=C/C(=O)c3ccc(Cl)c(Cl)c3)[nH]n2)cc(OC)c1OC,LC50,HT-29 [1],> 100 µM
same,TGI,HT-29 [1],> 100 µM
same,TGI,SF-268,63.3 µM
same,CC50,SF-268,> 100 µM
same,LC50,LOX IMVI,78.4 µM
same,TGI,LOX IMVI,16.4 µM
same,LC50,IGROV-1,> 100 µM
same,TGI,IGROV-1,> 100 µM
same,LC50,OVCAR-3,> 100 µM
same,TGI,OVCAR-3,37.8 µM
same,LC50,Hs-578T [2],> 100 µM
same,TGI,Hs-578T [2],> 100 µM
same,growth at 0.01 µM,SNB-19 [3],100%
same,growth at 0.01 µM,SF-539,93%
same,growth at 0.01 µM,PC-3 [4],95%
same,growth at 0.01 µM,T47D,90%
same,growth at 0.1 µM,NCI-H322M,92%
same,growth at 0.1 µM,NCI-H522,89%
same,growth at 0.1 µM,OVCAR-5 [5],99%
same,growth at 0.1 µM,MCF7,105%
same,growth at 1 µM,SR [6],23%
same,growth at 1 µM,HCC 2998 [7],102%
same,growth at 1 µM,HT-29 [8],96%
same,growth at 1 µM,SW-620,91%
same,growth at 1 µM,SNB-19 [9],90%
same,growth at 1 µM,M14,107%
same,growth at 1 µM,786-0,91%
same,growth at 1 µM,SN12C,91%
same,growth at 1 µM,Hs-578T [10],104%
same,growth at 10 µM,HOP-62,-9%
same,growth at 10 µM,HT-29 [11],53%
same,growth at 10 µM,U-251,48%
same,growth at 10 µM,NCI/ADR-RES,51%
same,growth at 10 µM,RXF 393,9%
same,growth at 10 µM,PC-3 [12],39%
same,growth at 10 µM,MDA-MB-468,-13%
same,growth at 100 µM,HL-60(TB),-33%
same,growth at 100 µM,SR [13],-51%
same,growth at 100 µM,HCC 2998 [14],-50%
same,growth at 100 µM,SK-MEL-28,-16%
same,growth at 100 µM,OVCAR-5 [15],16%
COc1cc(C(=O)/C=C/c2cc(-c3cc(OC)c(OC)c(OC)c3)n[nH]2)cc(OC)c1OC,LC50,HT-29 [1],6.36 µM
same,TGI,HT-29 [1],3.37 µM
same,TGI,SF-268,4.58 µM
same,CC50,SF-268,14.2 µM
same,LC50,LOX IMVI,5.57 µM
same,TGI,LOX IMVI,2.91 µM
same,LC50,IGROV-1,33.1 µM
same,TGI,IGROV-1,10.2 µM
same,LC50,OVCAR-3,5.79 µM
same,TGI,OVCAR-3,3.18 µM
same,LC50,Hs-578T [2],> 100 µM
same,TGI,Hs-578T [2],53.9 µM
same,growth at 0.01 µM,SNB-19 [3],92%
same,growth at 0.01 µM,SF-539,92%
same,growth at 0.01 µM,PC-3 [4],95%
same,growth at 0.01 µM,T47D,91%
same,growth at 0.1 µM,NCI-H322M,97%
same,growth at 0.1 µM,NCI-H522,103%
same,growth at 0.1 µM,OVCAR-5 [5],101%
same,growth at 0.1 µM,MCF7,95%
same,growth at 1 µM,SR [6],22%
same,growth at 1 µM,HCC 2998 [7],99%
same,growth at 1 µM,HT-29 [8],96%
same,growth at 1 µM,SW-620,85%
same,growth at 1 µM,SNB-19 [9],82%
same,growth at 1 µM,M14,98%
same,growth at 1 µM,786-0,80%
same,growth at 1 µM,SN12C,78%
same,growth at 1 µM,Hs-578T [10],80%
same,growth at 10 µM,HOP-62,-91%
same,growth at 10 µM,HT-29 [11],-86%
same,growth at 10 µM,U-251,-94%
same,growth at 10 µM,NCI/ADR-RES,12%
same,growth at 10 µM,RXF 393,-88%
same,growth at 10 µM,PC-3 [12],-69%
same,growth at 10 µM,MDA-MB-468,-90%
same,growth at 100 µM,HL-60(TB),-33%
same,growth at 100 µM,SR [13],7%
same,growth at 100 µM,HCC 2998 [14],-89%
same,growth at 100 µM,HCT-15,-72%
same,growth at 100 µM,SK-MEL-28,-97%
same,growth at 100 µM,OVCAR-5 [15],-72%
